Experimental data published in PMC8882856, “The affinity and selectivity of α‐adrenoceptor antagonists, antidepressants and antipsychotics for the human α2A, α2B, and α2C‐adrenoceptors and comparison with human α1 and β‐adrenoceptors” (Pharmacology Research & Perspectives, 2022).
“Also recorded” adds a separate entry of the source. Where two headings read alike, the source gives them in different places.

Columns and labels:
[1] = target: T1, human α2A‐adrenoceptor (Homo sapiens, UniProt P08913); assay: ^3H‐rauwolscine whole cell competition binding, CHO‐α2A cells
T1 sequence (P08913 1-465): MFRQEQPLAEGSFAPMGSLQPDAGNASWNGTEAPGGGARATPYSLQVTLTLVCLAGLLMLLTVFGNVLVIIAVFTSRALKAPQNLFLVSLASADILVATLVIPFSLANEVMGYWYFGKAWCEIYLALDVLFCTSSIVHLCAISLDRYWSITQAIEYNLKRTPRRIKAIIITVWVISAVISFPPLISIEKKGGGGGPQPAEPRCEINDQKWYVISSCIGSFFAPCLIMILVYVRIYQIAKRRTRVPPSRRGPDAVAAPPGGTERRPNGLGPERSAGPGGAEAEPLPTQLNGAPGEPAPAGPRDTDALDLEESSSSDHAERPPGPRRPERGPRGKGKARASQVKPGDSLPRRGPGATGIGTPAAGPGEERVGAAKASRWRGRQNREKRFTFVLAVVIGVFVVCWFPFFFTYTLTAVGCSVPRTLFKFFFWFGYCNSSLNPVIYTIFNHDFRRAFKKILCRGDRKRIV

[2] = target: human β2‐adrenoceptor (Homo sapiens, UniProt P07550); assay type: binding
Sequence of human β2‐adrenoceptor (P07550 whole entry): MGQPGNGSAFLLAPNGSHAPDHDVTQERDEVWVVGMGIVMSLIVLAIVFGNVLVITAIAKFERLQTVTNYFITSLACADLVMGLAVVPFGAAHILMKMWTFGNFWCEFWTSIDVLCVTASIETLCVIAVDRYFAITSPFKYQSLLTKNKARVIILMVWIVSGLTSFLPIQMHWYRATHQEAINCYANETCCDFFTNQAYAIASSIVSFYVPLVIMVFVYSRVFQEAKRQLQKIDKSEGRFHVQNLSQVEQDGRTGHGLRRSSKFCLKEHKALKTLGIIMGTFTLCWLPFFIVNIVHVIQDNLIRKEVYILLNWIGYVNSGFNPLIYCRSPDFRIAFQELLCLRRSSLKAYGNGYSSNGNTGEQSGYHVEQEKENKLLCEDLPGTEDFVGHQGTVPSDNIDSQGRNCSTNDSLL

[3] = target: human β1‐adrenoceptor (Homo sapiens, UniProt P08588)
Sequence of human β1‐adrenoceptor (P08588 whole entry): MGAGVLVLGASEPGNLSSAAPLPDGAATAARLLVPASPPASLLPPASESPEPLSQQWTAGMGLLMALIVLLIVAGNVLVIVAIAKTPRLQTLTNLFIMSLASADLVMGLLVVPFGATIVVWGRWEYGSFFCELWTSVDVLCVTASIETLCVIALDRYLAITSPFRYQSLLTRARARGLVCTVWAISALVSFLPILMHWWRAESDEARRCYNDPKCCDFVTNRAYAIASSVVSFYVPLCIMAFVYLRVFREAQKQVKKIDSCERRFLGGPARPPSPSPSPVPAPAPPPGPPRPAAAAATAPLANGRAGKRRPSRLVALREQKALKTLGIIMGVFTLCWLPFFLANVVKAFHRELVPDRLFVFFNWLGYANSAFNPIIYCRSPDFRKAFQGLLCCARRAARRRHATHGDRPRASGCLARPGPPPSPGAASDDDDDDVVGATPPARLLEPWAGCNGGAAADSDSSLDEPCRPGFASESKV

[4] = target: T2, human α2B‐adrenoceptor (Homo sapiens, UniProt P18089); assay: ^3H‐rauwolscine whole cell competition binding, CHO‐α2B cells
T2 sequence (P18089 1-450): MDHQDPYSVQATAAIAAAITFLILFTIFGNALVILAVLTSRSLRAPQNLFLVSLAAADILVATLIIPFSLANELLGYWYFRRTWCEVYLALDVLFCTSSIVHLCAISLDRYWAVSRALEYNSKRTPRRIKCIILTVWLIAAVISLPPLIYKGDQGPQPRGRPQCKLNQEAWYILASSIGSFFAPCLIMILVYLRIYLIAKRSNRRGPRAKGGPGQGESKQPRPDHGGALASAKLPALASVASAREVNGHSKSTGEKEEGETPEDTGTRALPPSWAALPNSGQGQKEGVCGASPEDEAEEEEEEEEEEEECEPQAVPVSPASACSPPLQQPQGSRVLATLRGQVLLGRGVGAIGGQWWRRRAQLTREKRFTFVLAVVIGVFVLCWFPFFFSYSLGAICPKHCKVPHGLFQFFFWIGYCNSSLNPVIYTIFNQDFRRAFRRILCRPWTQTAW

[5] = target: T3, human α2C‐adrenoceptor (Homo sapiens, UniProt P18825); assay: ^3H‐rauwolscine whole cell competition binding, CHO‐α2C cells; details: for Selectivity ratio α2A vs α2C (higher affinity for α2C) / Selectivity ratio α2B vs α2C (higher affinity for α2C): ratio of KD values
T3 sequence (P18825 1-462): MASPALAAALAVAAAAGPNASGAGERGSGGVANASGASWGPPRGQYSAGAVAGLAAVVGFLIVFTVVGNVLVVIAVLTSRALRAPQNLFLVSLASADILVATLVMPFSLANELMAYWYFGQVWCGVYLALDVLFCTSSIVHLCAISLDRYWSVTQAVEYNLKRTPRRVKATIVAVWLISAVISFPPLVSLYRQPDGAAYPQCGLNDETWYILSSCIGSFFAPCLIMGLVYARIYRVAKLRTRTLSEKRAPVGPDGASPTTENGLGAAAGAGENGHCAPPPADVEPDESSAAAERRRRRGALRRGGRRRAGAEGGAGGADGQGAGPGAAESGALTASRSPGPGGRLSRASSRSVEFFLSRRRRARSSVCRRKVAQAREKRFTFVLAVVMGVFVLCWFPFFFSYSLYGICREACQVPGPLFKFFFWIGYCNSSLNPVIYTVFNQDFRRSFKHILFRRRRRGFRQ

[6] = target: T1, human α2A‐adrenoceptor; assay: cell-based
[7] = ^3H‐CGP12177 whole cell binding, log values, mean ± s.e.mean, ^app = apparent KD, 'no binding to' = log top concentration
[8] = given as log KD (negative values), 3H-CGP12177 whole cell binding, CHO cells, mean ± s.e.mean
[9] = proportion of site 1 in two-site fit
[10] = two-component inhibition, proportion of higher affinity site

## CC(C)OC(=O)c1cc2c(OCC(O)CNC(C)(C)C)cccc2[nH]1 (stereo not shown) [SDZ 21009]
[1]; log KD, negative sign, apparent KD from extrapolated curve, maximum concentration inhibited most but not all specific binding
  Log KD α2A (^app = apparent affinity): -4.86 ± 0.07^app

## CN1[C@H]2C[C@H](OC(=O)[C@H](CO)c3ccccc3)C[C@@H]1[C@@H](O)C2 [anisodamine]
[2]
  Log KD β2: no binding to −3; also recorded: no binding to -3
[3]
  Log KD β1: no binding to −3; also recorded: no binding to -3
[1]
  IC50 (log) α2A, IC50>top concentration used: IC50>−3
[4]
  IC50 (log) α2B, IC50>top concentration used: IC50>−3
[5]
  Log KD α2C: −3.56 ± 0.07^app

## CCC1(c2cnc[nH]2)Cc2ccccc2C1 [atipamezole]
[2]; [7]
  Log KD β2: No binding to −4.5
[2]; [8]
  Log KD β2: No binding to -4.5
[3]; [7]
  Log KD β1: No binding to −4.5
[3]; [8]
  Log KD β1: No binding to -4.5
[1]
  Kd: 3.16 nM

## COc1cccc(OC)c1OCCNCC1CSc2ccccc2O1 (stereo not shown) [benoxathian]
[2]; [7]
  Log KD β2: −5.08 ± 0.06
[3]; [7]
  Log KD β1: −4.55 ± 0.03^app
[1]
  Log KD α2A: −7.17 ± 0.02
[1]; ratio of KD values
  Selectivity ratio α2A vs α2B (higher affinity for α2A): 16.2
[4]
  Log KD α2B: −5.96 ± 0.06
[5]
  Log KD α2C: −7.75 ± 0.03
  Selectivity ratio α2A vs α2C (higher affinity for α2C): 3.8
  Selectivity ratio α2B vs α2C (higher affinity for α2C): 61.7

## CN(C)CCCC1(c2ccc(F)cc2)OCc2cc(C#N)ccc21 (stereo not shown) [citalopram]
[2]; [7]
  Log KD β2: No binding to −4
[2]; [8]
  Log KD β2: No binding to -4
[3]; [7]
  Log KD β1: No binding to −4
[3]; [8]
  Log KD β1: No binding to -4
[1]
  IC50: > 100000 nM
[5]
  IC50: > 100000 nM

## CN(C)CCCN1c2ccccc2CCc2ccc(Cl)cc21 [clomipramine]
[6]
  Kd: 1950 nM

## CC(C)(C)NCC(O)COc1cccc2[nH]c(C#N)cc12 (stereo not shown) [cyanopindolol]
[1]
  Kd: 2750 nM
[4]
  Kd: 15100 nM
[5]
  Kd: 708 nM

## CCC1(C2=NCCN2)Cc2ccccc2O1 (stereo not shown) [eforaxan]
[2]; [7]
  Log KD β2: no binding to −3
[2]; [8]
  Log KD β2: no binding to -3
[3]; [7]
  Log KD β1: no binding to −3
[3]; [8]
  Log KD β1: no binding to -3

## CNCCCN1c2ccccc2CCc2ccc(Cl)cc21 [norclomipramine]
[2]; ^3H‐CGP12177, log value
  IC50 (log) β2, IC50>top concentration used: IC50>−4.5
[3]; ^3H‐CGP12177, log value
  IC50 (log) β1, IC50>top concentration used: IC50>−4.5
[1]
  Log KD α2A: −5.29 ± 0.09^app
[4]
  Log KD α2B: −5.74 ± 0.04^app
[4]; ratio of KD values
  Selectivity ratio α2A vs α2B (higher affinity for α2B): 2.8
[5]
  Log KD α2C: −5.80 ± 0.07^app
  Selectivity ratio α2A vs α2C (higher affinity for α2C): 3.2
  Selectivity ratio α2B vs α2C (higher affinity for α2C): 1.1

## CC(COc1ccccc1)N(CCCl)Cc1ccccc1 (stereo not shown) [phenoxybenzamine]
[4]
  % site 1 α2B (percentage through first component): −6.44 ± 0.11 −4.89 ± 0.08 51.4 ± 3.3% site 1
[4]; [9]
  % site 1, α2B: 51.4 ± 3.3%
[4]; [10]
  % site 1, α2B: 51.4 ± 3.3%
[5]
  % site 1 α2C (percentage through first component): −6.41 ± 0.11 −4.71 ± 0.13 74.1 ± 4.1% site 1
[5]; [9]
  % site 1, α2C: 74.1 ± 4.1%
[5]; [10]
  % site 1, α2C: 74.1 ± 4.1%

## CNCCCC1c2ccccc2C=Cc2ccccc21 [protriptyline]
[6]
  Kd: 10000 nM

## O=C1Cc2cc(CCN3CCN(c4nsc5ccccc45)CC3)c(Cl)cc2N1 [ziprasidone]
[2]; [7]
  Log KD β2: No binding to −4
[2]; [8]
  Log KD β2: No binding to -4
[3]; [7]
  Log KD β1: No binding to −4
[3]; [8]
  Log KD β1: No binding to -4
